The values below come from paper PMC8587515, “Cytotoxic and Anti-Inflammatory Activities of Dihydroisocoumarin and Xanthone Derivatives from Garcinia picrorhiza” (Molecules, 2021).

For series [1], the target named is T1, COX-1 (purified PGHS-1 from ram seminal vesicles) (Ovis aries, UniProt P05979).
T1 construct: Purified PGHS-1 from ram seminal vesicles for COX-1; purchased Cayman Chemical Co., Ann Arbor, MI, USA; host or cells: ram seminal vesicles (tissue-purified)
T1 sequence (P05979 25-600): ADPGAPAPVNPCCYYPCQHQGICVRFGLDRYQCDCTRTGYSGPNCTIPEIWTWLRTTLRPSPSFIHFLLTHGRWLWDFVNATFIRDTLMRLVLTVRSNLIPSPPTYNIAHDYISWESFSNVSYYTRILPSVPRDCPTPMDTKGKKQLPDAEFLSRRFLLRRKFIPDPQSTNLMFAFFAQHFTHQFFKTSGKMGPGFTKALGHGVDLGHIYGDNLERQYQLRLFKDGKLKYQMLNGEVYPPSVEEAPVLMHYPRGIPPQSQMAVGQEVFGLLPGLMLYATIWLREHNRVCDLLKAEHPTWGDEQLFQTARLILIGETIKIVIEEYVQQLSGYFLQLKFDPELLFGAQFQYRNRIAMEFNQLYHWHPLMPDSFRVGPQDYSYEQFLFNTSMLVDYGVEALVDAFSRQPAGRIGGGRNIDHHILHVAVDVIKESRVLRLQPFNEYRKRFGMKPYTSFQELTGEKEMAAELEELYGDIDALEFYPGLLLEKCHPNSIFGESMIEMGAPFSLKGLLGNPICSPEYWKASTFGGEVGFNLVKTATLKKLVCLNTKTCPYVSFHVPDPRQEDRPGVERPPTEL
Description: COX-1 enzyme inhibition assay (PGE2 ELISA). The format is biochemical. The note with it: mean ± SD (n = 4). Here is the method:
(§1) The anti-inflammatory effects of the isolated compounds were also screened on COX-1 and COX-2 enzymes inhibition at a final concentration of 20 µM.
(§2) Purified PGHS-1 from ram seminal vesicles for COX-1 and human recombinant PGHS-2 for COX-2 (Cayman Chemical Co., Ann Arbor, MI, USA) were used for the COX inhibition assays. Experiments were performed in a 96-well plate format, as previously described. Briefly, the incubation mixture contained 180 µL of 0.1 M TRIS/HCl-buffer pH 8.0 (Roth, Karlsruhe, Germany), 50 µM Na2EDTA (only for COX-2, Titriplex III, Merck, Darmstadt, Germany), 18 mM L-epinepherine bitartrate (Fluka, Buchs, Switzerland), 5 µM porcine hematin (MP Biomedicals LLC, Solon, OH, USA), and COX-1 or COX-2 enzymes (0.2 U/well). Ten microliters of tested compounds (dissolved in DMSO with a final concentration of 20 µM) was added and the mixture was pre-incubated for 5 min at room temperature. Thereafter, 10 µL of 5 µM arachidonic acid (Ann Arbor, Michigan USA) was added to the mixture and incubated for 20 min at 37 °C. The reaction was subsequently stopped by adding 10 µL of 10% (v/v) formic acid. The concentration of PGE2 generated in the reaction was quantitatively measured by a competitive PGE2 ELISA kit (Enzo Life Sciences Inc., Farmingdale, NY, USA) according to the manufacturer’s protocol and previous procedure. The absorbance at 405 nm was measured using a Hidex Sense Microplate Reader (Hidex, Turku, Finland). […] The assays were performed in duplicates and repeated in two independent experiments.

For series [2], the target named is T2, COX-2 (human recombinant PGHS-2) (Homo sapiens, UniProt P35354).
T2 construct: purchased Cayman Chemical Co., Ann Arbor, MI, USA
T2 sequence (P35354 18-604): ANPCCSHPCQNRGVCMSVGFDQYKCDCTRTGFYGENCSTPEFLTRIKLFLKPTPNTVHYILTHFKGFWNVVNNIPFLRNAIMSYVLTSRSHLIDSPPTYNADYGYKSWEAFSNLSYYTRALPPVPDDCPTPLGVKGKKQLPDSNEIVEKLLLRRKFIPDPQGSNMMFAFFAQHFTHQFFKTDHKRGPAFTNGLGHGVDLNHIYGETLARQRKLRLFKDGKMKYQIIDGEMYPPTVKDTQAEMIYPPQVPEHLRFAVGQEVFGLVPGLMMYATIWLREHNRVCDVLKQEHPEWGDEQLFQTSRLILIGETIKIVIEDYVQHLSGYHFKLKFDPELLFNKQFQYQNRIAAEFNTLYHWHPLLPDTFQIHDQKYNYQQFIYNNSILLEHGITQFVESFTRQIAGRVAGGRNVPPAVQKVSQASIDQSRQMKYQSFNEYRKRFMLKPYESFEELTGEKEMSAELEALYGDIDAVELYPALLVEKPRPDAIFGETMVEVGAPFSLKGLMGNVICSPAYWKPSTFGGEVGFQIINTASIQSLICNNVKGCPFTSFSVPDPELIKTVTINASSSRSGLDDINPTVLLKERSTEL
Briefly: COX-2 enzyme inhibition assay (PGE2 ELISA). The format is biochemical. Particulars: mean ± SD (n = 4). The method, then: as §1, §2
(An ELISA detects its analyte on a solid surface through an enzyme-linked reagent.)

Series [3] is described as follows: Cytotoxicity (XTT cell viability), BV-2. The format is cell-based. The note with it: mouse, BV-2 microglial cells, LPS/IFN-γ-stimulated, LPS-IFN-γ-induced cells, mean ± SEM (n = 6). Here is the method: (§3) Compounds 1–8 were screened for their inhibitory effects on nitric oxide production in LPS-IFN-γ activated RAW 264.7 macrophages and BV-2 microglial cells at a final concentration of 50 µM. […] A deprenylated furanoxanthone structure with ortho hydroxy group in ring B as in 7 might be important to enhance the inhibitory effect when compared to 6 and 8.
(§4) The iNOS inhibitory activity of the isolated compounds and respective cytotoxicity was determined using a previously described protocol. Briefly, BV-2 mouse microglial (25,000 cells/well) and RAW 264.7 mouse macrophage (100,000 cells/well) cell lines were seeded into 96-well plates in high glucose Dulbecco’s Modified Eagle’s Medium (DMEM, Gibco) containing 4 mM L-glutamine, 10% FBS, 2% HEPES, 1% penicillin/streptomycin, and 0.5% amphotericin B. After incubation for 24 h at 37 °C in a 5% CO2 humidified atmosphere, the cells were stimulated with 0.05% LPS (Sigma) and 0.025% interferon-γ (Roche Diagnostics, Mannheim, Germany) and treated with different concentrations (5–100 μM) of the tested compounds. The level of NO production in cell culture supernatants was determined using Griess reagent (Sigma) by photocolorimetric analysis after 16 h of incubation, using a Hidex Sense Microplate Reader (Hidex, Turku, Finland). Fifty microliters of XTT reagent (Sigma, Kit II) was then added into the same plates for cell viability measurement after 60 min incubation. L-NMMA (Alexis, Grünberg, Germany) 100 µM was used as the positive control, while 1% DMSO and digitonin (Roth, Karlsruhe, Germany) 400 µM were used as the vehicle and negative control, respectively. The assays were conducted in triplicates and repeated in two independent experiments. IC50 values were determined by graphical analysis using GraphPad Prism 7 (GraphPad Software, La Jolla, CA, USA).

For series [4], the system named is NO production in LPS-IFN-γ-induced RAW 264.7 macrophages. Briefly: NO production inhibition assay (Griess), RAW 264.7. The series is classed as cell-based, mouse. The method, then: as §3, §4
The nature of series [5]: Cytotoxicity (XTT cell viability), RAW 264.7. The series is classed as cell-based. The note with it: mouse, RAW 264.7 macrophage cells, LPS/IFN-γ-stimulated, LPS-IFN-γ-induced cells, mean ± SEM (n = 6). The method, then:
as §3, §4

Series [6] relates to NO production in LPS-IFN-γ-induced BV-2 microglial cells. Briefly: NO production inhibition assay (Griess), BV-2. The series is classed as cell-based, mouse. Here is the method: as §3, §4
A general note: Griess reagent forms a coloured azo dye with nitrite.

Series [7] concerns Hep G2 (human hepatocellular carcinoma). Further details: method as in PMID 30153471, PMID 33999337. The note with it: MTT; results based on previous work; read-out: IC50 ± SEM, Hep G2; cited from earlier work.
The test system of series [8] is MCF-7 (human breast adenocarcinoma). Further details: method as in PMID 30153471, PMID 33999337. Particulars: MTT; results based on previous work; read-out: IC50 ± SEM, MCF-7; cited from earlier work.
The subject of series [9] is HeLa S3 (human cervical carcinoma). Further details: method as in PMID 30153471, PMID 33999337. Particulars: MTT; results based on previous work; read-out: IC50 ± SEM, HeLa S3; cited from earlier work.
Series [10] has as its system HT-29 (human colon adenocarcinoma). Further details: method as in PMID 30153471, PMID 33999337; key to IC50 ± SEM, HT-29: IC50 ≤ 10 µM = good cytotoxicity; 10 µM < IC50 ≤ 30 µM = weak cytotoxicity; inactive (IC50 > 30 µM). The note with it: MTT; results based on previous work; cited from earlier work.
Series [11] deals with KB (human epidermoid carcinoma). Also noted: method as in PMID 30153471, PMID 33999337. Particulars: MTT; results based on previous work; read-out: IC50 ± SEM, KB; cited from earlier work.
For series [12] the test system is unchanged. Description: MTT cytotoxic activity assay, KB. Particulars: 72 h, mean ± SEM of three replicates. The series is classed as cell-based. Here is the method: (§5) The cytotoxic activity of the isolated compounds was evaluated using the MTT viability assay with doxorubicin as the positive control and the results are presented in Table 2.
(§6) The MTT colorimetric method was performed to evaluate cytotoxic activity of the isolated compounds against human epidermoid carcinoma (KB; ATCC CCL17), human cervical carcinoma (HeLa S3; ATCC CCL2-2), human colon adenocarcinoma (HT-29; ATCC HTB-38), human breast adenocarcinoma (MCF-7; ATCC HTB-22), and human hepatocellular carcinoma (Hep G2; ATCC HB-8065) cell lines according to the previous method. The cancer cells were cultured in MEM containing 10% fetal bovine serum in the presence of 100 U/mL penicillin and 100 μg/mL streptomycin sulphate (Gibco, Rockville, MD, USA), seeded in a 96-well plate (3000 cells/well), and pre-incubated at 37 °C for 24 h in a 5% CO2 humidified atmosphere. The tested compounds with serial concentrations (0.3–100 μM) were added and incubated for a further 72 h in the same condition. At the end of treatment, 20 µL of MTT solution (5 mg/mL in PBS, Sigma, St. Louis, MI, USA) was added to each well and further incubated for 3 h. After centrifugation at 1400 rpm for 5 min at 4 °C, the supernatant was decanted and DMSO (100 µL/well) was added to allow formazan product solubilization, which was subsequently measured by a microplate reader (Tecan Trading AG, Switzerland) at wavelength 550 nm. Control cells were treated with 0.1% DMSO. Doxorubicin (tested concentrations: 0.01–3.0 μM, Sigma) was used as the positive control. The results are expressed as the mean values of three replicates for three independent experiments. IC50 values were determined by graphical analysis using SigmaPlot 10 (Systat Software Inc., San Jose, CA, USA), obtained by plotting the cell viability percentage versus sample concentration.
For orientation: Formazan colour is commonly taken as a measure of viable cells.

Series [13] relates to HeLa S3 (human cervical carcinoma). Description: MTT cytotoxic activity assay, HeLa S3. The format is cell-based. Particulars: 72 h, mean ± SEM of three replicates. Here is the method: as §5, §6
Where [14] appears, read: final concentration of 50 µM, preliminary screen.

Like-named read-outs stand apart in the source and are kept apart here.

Usually inhibition stands for the drop in the measured response relative to a control, in per cent. For orientation: % Inhibition means the percentage by which the read-out fell short of the control. For the compound `COc1c(O)cc2c(c1O)C(=O)O[C@@H](c1ccccc1)C2` [Compound 2, (−)-annulatomarin], the figures for the inhibition at 20 µM in [1] and in series [2] were below 10% and above 10%, respectively. For the same compound, in series [2], the “% Inhibition at 20 µM, COX-2” value worked out at 10.4 ± 5.0%.
On to `COc1c(O)cc2c(c1O)C(=O)O[C@@H](c1ccccc1O)C2` [Compound 3, 2′-hydroxyannulatomarin], for which the values for the inhibition at 20 µM in series [1] and in [2] were 24.2 ± 12.3% and below 10%, respectively.
The term IC50 denotes the point on the concentration scale where inhibition reaches its midpoint. For `CC1(C)c2c(cc3oc4ccc(O)c(O)c4c(=O)c3c2O)O[C@@H]1CO` [Compound 5, 3′-hydroxycalothorexanthone], the IC50 at 16 h was 74.7 ± 2.1 µM in series [3] and above 200 µM in series [5]. Besides, the half-inhibitory concentration (IC50) in series [4] (Mus musculus, RAW264.7, LPS-IFN-γ-induced, 16 h, mean ± SEM (n = 6), read-out: IC50, iNOS (inhibition of NO production), RAW 264.7) is 16.4 ± 4.5 µM; in series [6] (Mus musculus, BV-2, LPS-IFN-γ-induced, 16 h, mean ± SEM (n = 6), read-out: IC50, iNOS (inhibition of NO production), BV-2), 13.8 ± 1.6 µM. Further, in series [4] (setting [14]), the “suppression of NO production, RAW 264.7” value is listed as “over 70%”. The “suppression of NO production, BV-2” value in [6] (setting [14]) is “over 70%”.
Turning to `C[C@@H]1Oc2cc(O)c3c(=O)c4cccc(O)c4oc3c2C1(C)C` [Compound 6, pancixanthone B], the IC50 in [7] is 22.8 ± 0.4 µM; in [8] it was 15.6 ± 0.3 µM; in [9], 20.7 ± 0.6 µM; in [11] it was 12.1 ± 0.1 µM. Further, the values for the inhibition at 20 µM in [1] and in [2] were 31.2 ± 21.7% and below 10%, respectively. The “IC50 ± SEM, HT-29” value in series [10] was “inactive”.
With `O=c1c2cccc(O)c2oc2ccc(O)c(O)c12` [Compound 9, 1,2,5-trihydroxyxanthone], the inhibition at 20 µM in series [1] is 22.6 ± 2.2%; in series [2], below 10%.
On to `COc1c(O)ccc2c(=O)c3c(O)cc(O)cc3oc12` [Compound 13, 1,3,6-trihydroxy-5-methoxyxanthone], for which the IC50 in series [12] was determined as 11.4 ± 1.7 µM; in [13], 15.2 ± 1.3 µM.
In the case of `COc1cc(O)c2c(=O)c3ccc(O)c(OC)c3oc2c1` [Compound 14, 1,6-dihydroxy-3,5-dimethoxyxanthone], the inhibition at 20 µM in [1] is 18.3 ± 12.1%; in series [2], below 10%.
Consider `[H]/N=C(/NC)NCCC[C@H](N)C(=O)O` [L-NMMA, reference compound], for which the inhibition at 100 µM came out at 64.1% in series [4] (Mus musculus, RAW264.7, at 100 µM, read-out: inhibition of NO production, RAW 264.7 (positive control)) and 44.1% in series [6] (Mus musculus, BV-2, at 100 µM, read-out: inhibition of NO production, BV-2 (positive control)).
